Patent publication US20250339409A1, “USES OF PAN BET INHIBITORS” (VYNE THERAPEUTICS INC., priority 2021, published 2025)
Where two headings read alike, the source gives them in different places.

Assays:
[1] = tested on: CXCL10, IL17α, IL22, IL36γ, CCL20, SerpinB4 gene expression in Th17 stimulated human skin; experiment: Th17 stimulated human skin explants, RT-qPCR of biomarkers; type: cell-based; conditions: for inhibition at 10 µM: Homo sapiens, calculated to Th17 stimulated control, three skin donors
Source text: Human skin biopsy tissue was stimulated to induce a Th17 immuno-phenotype using a method derived from Feghali-Bostwick et al. Induction of a Th17 phenotype in human skin—a mimic of dermal inflammatory diseases, Methods and Protocols, 2, 45 (2019). The pharmacodynamic assay described therein involves a similar paradigm to elicit a Th2 response and is used to evaluate the therapeutic potential of the active compounds (e.g., BETi1; and
Freshly excised healthy human skin tissue from abdominoplasties is defatted, cleaned and sectioned into 7 mm biopsies. The biopsies are placed in Transwell® inserts with the epidermis apical and exposed to air and the dermis submerged in media in the basal chamber. The biopsies are pre-treated overnight at 37° C., 5% CO2 with different compounds and controls added to the media in the basal chamber.
The next day, contents of the basal chamber is replaced with fresh media containing the test compound (listed below) and a stimulation cocktail for either Th2 inflammation (proprietary of service provider cocktail) or Th17 inflammation (mix of antibodies against CD3, CD28, IL-4, IFNγ and recombinant IL-1β, IL-6, IL-21, TGF-β). The biopsies are incubated at 37° C., 5% CO2 for a further 24 hrs.
A list of all the treatments is provided below: • 1. Untreated control (for both stimulations) • 2. Th2 stimulated control • 3. Th17 stimulated control • 4. Th2+BETia at 0.01, 0.04, 0.16, 0.63, 2.50, and 10 μM • 5. Th2+BETi1 at 0.01, 0.04, 0.16, 0.63, 2.50, and 10 μM • 6. Th2+Ruxolitinib at 0.01, 0.04, 0.16, 0.63, 2.50, and 10 μM • 7. Th2+betamethasone valerate 210 μM (equivalent to 0.01%) • 8. Th17+BETia at 10 μM • 9. Th17+BETi1 at 10 μM • 10. Th17+Ruxolitinib at 10 μM • 11. Th17+betamethasone valerate 210 μM (equivalent to 0.01%)
After harvesting, the biopsies are cut in half, and one half is homogenized and used for RNA extraction by standard methods and inflammatory pathways is assessed by RT-qPCR. The ability of BETi1 or BETia to inhibit the activity of up to six biomarkers per stimulation is reported as percent activity calculated to stimulated control and fold change in gene expression calculated to untreated control with respect to Th2 (IL4, IL13, IL31, CCL17, CCL26, CCL2) and Th17 (CXCL10, IL17α, IL22, IL36γ, CCL20, SerpinB4). Statistical analysis is performed on data sets from all 3 donors combined and compares the percent inhibition of each biomarker by each treatment calculated to its respective vehicle.
qPCR values were calculated using the relative quantification approach outlined by Livak, et al (2001) (Section 9, Reference 2). The Ct values (threshold cycle) defined as the fractional cycle number at which the amount of amplified target reaches a fixed threshold, were normalised to the Ct value of an internal biomarker or ‘housekeeping gene’ (GAPDH). The higher limit of detection was set at a Ct value of 40, and any target having not reached Ct by 40 cycles was set to this value. The delta Ct values (dt(Ct)) refers to the Ct of the gene of interest minus the Ct of the internal biomarker. The ddt(Ct) is the dt(Ct) value of the gene minus the average dt(Ct) value of the untreated samples. The ddt(Ct) is converted to power by the equation; =power(2,dt(Ct)). Fold change was calculated as ratio of the power of the gene of interest divided by the average power of the untreated samples. This normalizes the untreated samplers to a value of 1. For the comparison of multiple skin donors, the stimulated samples were normalized to 100% maximum activity (such to normalize variability between different skin donors). Percent activity was calculated as the percent increase or decrease in stimulation compared to the stimulated samples set at 100% maximum activity. Percent change was calculated as: Inhibition=(100−(avg % activity/stimulated)*100). Statistical analysis was performed using One-way ANOVA with Dunnett's Multiple Comparisons (non parametric). […]

[2] = Chemical and physical stability of formulations (HPLC, polarized light microscopy); type: physicochemical; conditions: 3 m at 25° C.
Experimental: For Polarized Light Microscopy evaluation, the samples of the formulations in petrolatum are heated to 55° C. to melt most of the petrolatum crystals and make visible crystals of API. The API crystals are measured and photomicrographs are taken.
The microscopy samples of API are prepared by dispersing some (unmeasured amount) of API powder in a drop of mineral oil. The dispersion is done by a spatula. The concentration of API in mineral oil is unknown.
The stability of prepared formulations was assessed by HPLC testing of samples of two formulations, prepared with API from two different sources. […] The area % of the main peak in the samples after temperature exposure was compared to area % of the main peak in initial samples of the same batches and in the corresponding APIs. The samples exposed to stability challenge were also evaluated for presence of new peaks, not observed in API or in initial samples.

`Cn1cc(-c2cccc(O)c2Oc2ccccc2)c2cc[nH]c2c1=O` [BETi1] gave an inhibition at 10 µM ([1]; read-out: % inhibition CXCL10) of 95%, an inhibition at 10 µM ([1]; read-out: % inhibition IL17α) of 99.5% and an inhibition at 10 µM ([1]; read-out: % inhibition IL36γ) of 95%. The “inhibition of IL-17, IL-36 and CXCL10 release relative to vehicle control” value ([1]; Th17-stimulated human skin tissue) was “greater than 95%” and the “degradation in compositions comprising suspended BETi1” value [2] was “no degradation of BETi1 being observed”.
